Values after ≈ are worked out from the molar mass of the structure shown.
Key:
Assay type in all cases: functional
[1] = tested on: Mycobacterium tuberculosis; experiment: Antimycobacterial activity against Mycobacterium tuberculosis harbouring mmpL3 V684A mutant gene assessed as inhibition of bacterial growth by visual analysis
[2] = tested on: Mycobacterium tuberculosis; experiment: Antimycobacterial activity against Mycobacterium tuberculosis harbouring mmpL3 S309C mutant gene assessed as inhibition of bacterial growth by visual analysis
[3] = tested on: Mycobacterium tuberculosis; experiment: Antimycobacterial activity against Mycobacterium tuberculosis harbouring mmpL3 G253E mutant gene assessed as inhibition of bacterial growth by visual analysis
[4] = tested on: Mycobacterium tuberculosis; experiment: Antimycobacterial activity against Mycobacterium tuberculosis harbouring mmpL3 V684G mutant gene assessed as inhibition of bacterial growth by visual analysis
[5] = tested on: Mycobacterium tuberculosis; experiment: Antimycobacterial activity against Mycobacterium tuberculosis harbouring mmpL3 S591l mutant gene assessed as inhibition of bacterial growth by visual analysis
[6] = tested on: Mycobacterium tuberculosis; experiment: Antimycobacterial activity against Mycobacterium tuberculosis harbouring mmpL3 L189R mutant gene assessed as inhibition of bacterial growth by visual analysis
[7] = tested on: Mycobacterium tuberculosis; experiment: Antimycobacterial activity against Mycobacterium tuberculosis harbouring mmpL3 L567P mutant gene assessed as inhibition of bacterial growth by visual analysis
[8] = tested on: Mycobacterium tuberculosis; experiment: Antimycobacterial activity against Mycobacterium tuberculosis harbouring wild-type mmpL3 gene assessed as inhibition of bacterial growth by visual analysis
[9] = tested on: Mycobacterium tuberculosis; experiment: Antimycobacterial activity against Mycobacterium tuberculosis harbouring mmpL3 S288T mutant gene assessed as inhibition of bacterial growth by visual analysis
[10] = tested on: Mycobacterium tuberculosis; experiment: Antimycobacterial activity against Mycobacterium tuberculosis harbouring mmpL3 F644C mutant gene assessed as inhibition of bacterial growth by visual analysis

SMILES	MIC [1] [µg/mL]	MIC [2] [µg/mL]	MIC [3] [µg/mL]	MIC [4] [µg/mL]	MIC [5] [µg/mL]	MIC [6] [µg/mL]	MIC [7] [µg/mL]	MIC [8] [µg/mL]	MIC [9] [µg/mL]	MIC [10] [µg/mL]
O=C(CNc1cccc(OC(F)(F)F)c1)NC12CC3CC(CC(C3)C1)C2	1 (≈ 2.71 µM)	4 (≈ 10.9 µM)	4 (≈ 10.9 µM)	0.5 (≈ 1.36 µM)	4 (≈ 10.9 µM)	2 (≈ 5.43 µM)	2 (≈ 5.43 µM)	0.5 (≈ 1.36 µM)	8 (≈ 21.7 µM)	–
C[C@@H]1[C@H]2C[C@@H](C[C@H]1NC(=O)CNc1cccc(Cl)c1)C2(C)C	2 (≈ 6.23 µM)	8 (≈ 24.9 µM)	4 (≈ 12.5 µM)	2 (≈ 6.23 µM)	4 (≈ 12.5 µM)	4 (≈ 12.5 µM)	2 (≈ 6.23 µM)	1 (≈ 3.12 µM)	16 (≈ 49.9 µM)	4 (≈ 12.5 µM)
CC[C@H]1OC(=O)[C@H](C)[C@@H](O[C@H]2C[C@@](C)(OC)[C@@H](O)[C@H](C)O2)[C@H](C)[C@@H](O[C@@H]2O[C@H](C)C[C@H](N(C)C)[C@H]2O)[C@](C)(OC)C[C@@H](C)C(=O)[C@H](C)[C@@H](O)[C@]1(C)O [CLARITHROMYCIN]	–	0.5 (≈ 0.668 µM)	0.5 (≈ 0.668 µM)	0.5 (≈ 0.668 µM)	0.5 (≈ 0.668 µM)	0.5 (≈ 0.668 µM)	0.5 (≈ 0.668 µM)	0.5 (≈ 0.668 µM)	0.5 (≈ 0.668 µM)	0.5 (≈ 0.668 µM)
